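Grown in 96-well plates, cells were treated for 48 hours with each compound at five concentrations. Insufficient inhibition: endpoint recorded as highest concentration tested. GI50 is the concentration that inhibits growth by half. TGI marks complete inhibition of growth.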
Experiments:
Assay in all cases: NCI tumour cell line growth inhibition, 48 h
COLO 205 colon = tested on: COLO 205 colon
EKVX NSCLC = tested on: EKVX NSCLC
HCT-116 colon = tested on: HCT-116 colon
HT29 colon = tested on: HT29 colon
NCI-H23 lung = tested on: NCI-H23 lung
RPMI-8226 leukemia = tested on: RPMI-8226 leukemia
SF-268 CNS = tested on: SF-268 CNS
SK-MEL-2 melanoma = tested on: SK-MEL-2 melanoma
SK-MEL-28 melanoma = tested on: SK-MEL-28 melanoma
U251 CNS = tested on: U251 CNS

Compound: CC(=O)OCCN1c2ccccc2Sc2cnccc21
- TGI (COLO 205 colon): > 10 µM
- TGI (EKVX NSCLC): > 10 µM
- TGI (HCT-116 colon): > 10 µM
- TGI (HT29 colon): > 10 µM
- TGI (NCI-H23 lung): > 10 µM
- TGI (RPMI-8226 leukemia): > 10 µM
- TGI (SF-268 CNS): > 10 µM
- TGI (SK-MEL-2 melanoma): > 10 µM
- TGI (SK-MEL-28 melanoma): > 10 µM
- TGI (U251 CNS): > 10 µM

Compound: CC1(C)OC2[C@@H](CNC(=O)NC(=O)NC(=O)CI)O[C@@H](n3cnc4c(NC(=O)Nc5ccccc5)ncnc43)[C@H]2O1 (stereo not given in full)
- GI50 (COLO 205 colon): 6.44 µM
- TGI (COLO 205 colon): 14.5 µM
- GI50 (EKVX NSCLC): 28.4 µM
- TGI (EKVX NSCLC): > 50 µM
- GI50 (HCT-116 colon): 10.7 µM
- TGI (HCT-116 colon): 25.4 µM
- GI50 (HT29 colon): 3.96 µM
- TGI (HT29 colon): 12.2 µM
- GI50 (NCI-H23 lung): 7.46 µM
- TGI (NCI-H23 lung): 16.7 µM
- GI50 (RPMI-8226 leukemia): 7.82 µM
- TGI (RPMI-8226 leukemia): 23.3 µM
- GI50 (SF-268 CNS): 8.22 µM
- TGI (SF-268 CNS): 17.1 µM
- GI50 (SK-MEL-2 melanoma): 10.5 µM
- TGI (SK-MEL-2 melanoma): 21.5 µM
- GI50 (SK-MEL-28 melanoma): 8.53 µM
- TGI (SK-MEL-28 melanoma): 16 µM
- GI50 (U251 CNS): 10 µM
- TGI (U251 CNS): 20.4 µM

Compound: N#Cc1ccc(NC(=O)Nc2ccc(Oc3ccc(NC(=O)Nc4ccc(C#N)cc4)cc3)cc2)cc1
- GI50 (COLO 205 colon): 24.6 µM
- TGI (COLO 205 colon): > 100 µM
- GI50 (EKVX NSCLC): 10.3 µM
- TGI (EKVX NSCLC): > 100 µM
- GI50 (HCT-116 colon): 4.02 µM
- TGI (HCT-116 colon): > 100 µM
- GI50 (HT29 colon): 90 µM
- TGI (HT29 colon): > 100 µM
- GI50 (NCI-H23 lung): 6.53 µM
- TGI (NCI-H23 lung): 56.5 µM
- GI50 (RPMI-8226 leukemia): 0.994 µM
- TGI (RPMI-8226 leukemia): 39.6 µM
- GI50 (SF-268 CNS): 10.8 µM
- TGI (SF-268 CNS): > 100 µM
- GI50 (SK-MEL-2 melanoma): 22.4 µM
- TGI (SK-MEL-2 melanoma): 88.9 µM
- GI50 (SK-MEL-28 melanoma): 79.2 µM
- TGI (SK-MEL-28 melanoma): > 100 µM
- GI50 (U251 CNS): 4.85 µM
- TGI (U251 CNS): 27.8 µM

Compound: C=C1C(=O)O[C@H]2[C@H]1CC/C(Cn1cc(-c3ccc(OC)cc3)nn1)=C\CC[C@@]1(C)O[C@@H]21
- GI50 (COLO 205 colon): 0.504 µM
- TGI (COLO 205 colon): 1.95 µM
- GI50 (EKVX NSCLC): 2.47 µM
- TGI (EKVX NSCLC): 10.3 µM
- GI50 (HCT-116 colon): 0.488 µM
- TGI (HCT-116 colon): 1.79 µM
- GI50 (HT29 colon): 1.23 µM
- TGI (HT29 colon): 2.86 µM
- GI50 (NCI-H23 lung): 2.06 µM
- TGI (NCI-H23 lung): 4.58 µM
- GI50 (RPMI-8226 leukemia): 1.87 µM
- TGI (RPMI-8226 leukemia): 5.15 µM
- GI50 (SF-268 CNS): 2.07 µM
- TGI (SF-268 CNS): 5.23 µM
- GI50 (SK-MEL-2 melanoma): 1.95 µM
- TGI (SK-MEL-2 melanoma): 4.61 µM
- GI50 (SK-MEL-28 melanoma): 0.822 µM
- TGI (SK-MEL-28 melanoma): 2.41 µM
- GI50 (U251 CNS): 9.45 µM
- TGI (U251 CNS): 21.5 µM

Compound: CC(C)(C)C1C=C(Sc2ccccc2)C(=O)O1 (stereo not given)
- TGI (COLO 205 colon): 54.4 µM
- TGI (EKVX NSCLC): > 100 µM
- TGI (HCT-116 colon): > 100 µM
- TGI (HT29 colon): > 100 µM
- TGI (NCI-H23 lung): > 100 µM
- TGI (RPMI-8226 leukemia): > 100 µM
- TGI (SF-268 CNS): > 100 µM
- TGI (SK-MEL-2 melanoma): > 100 µM
- TGI (SK-MEL-28 melanoma): > 100 µM
- TGI (U251 CNS): > 100 µM

— PubChem BioAssay (NCI)
